Molecular target: Prokineticin receptor 1 (Homo sapiens, UniProt Q8TCW9)
Experiment: Antagonist activity at human PKR1 expressed in RBL2H3 cells assessed as inhibition of prokineticin1-mediated intracellular calcium release preincubated for 10 mins followed by PK1 addition by FLIPR assay
Format: functional, cell-based, RBL-2H3

Chain of Prokineticin receptor 1 (Q8TCW9 whole entry): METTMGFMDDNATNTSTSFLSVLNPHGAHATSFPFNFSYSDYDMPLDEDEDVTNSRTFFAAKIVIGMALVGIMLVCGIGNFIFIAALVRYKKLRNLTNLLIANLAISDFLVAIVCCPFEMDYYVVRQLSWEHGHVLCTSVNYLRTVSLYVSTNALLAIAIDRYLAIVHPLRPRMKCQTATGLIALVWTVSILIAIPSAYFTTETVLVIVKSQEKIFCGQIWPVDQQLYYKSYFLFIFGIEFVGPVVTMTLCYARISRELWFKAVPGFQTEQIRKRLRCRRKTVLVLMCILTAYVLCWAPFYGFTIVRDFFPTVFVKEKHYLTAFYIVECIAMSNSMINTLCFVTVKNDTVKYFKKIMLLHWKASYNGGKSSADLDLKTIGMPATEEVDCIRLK

IC50: 1.63 µM
SMILES: Cc1n[nH]c(C)c1S(=O)(=O)N1CCC(=C(F)c2ccc(F)cc2F)CC1

Reference: ChEMBL document CHEMBL3879916, “1-sulfonyl piperidine derivatives as modulators of prokineticin receptors” (2014)
